Among the test systems are CCRF-CEM leukemia; HCT-15 colon; IGROV1 ovarian; LOX IMVI melanoma; MOLT-4 leukemia; NCI-H522 lung; OVCAR-5 ovarian; SF-295 CNS; SW-620 colon; UO-31 renal.
Test in all cases: NCI tumour cell line growth inhibition, 48 h

Molecules are shown by their SMILES.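 Following 48 hours of exposure in 96-well plates, responses at five concentrations were used to interpolate endpoints linearly. GI50 = concentration required for 50% inhibition of growth. The concentration for full growth arrest is given as TGI.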

For `Cc1c(N(C)C)ccc2c(=O)c3cccc(CC(=O)O)c3oc12`, the TGI in the experiment with CCRF-CEM leukemia, with HCT-15 colon, in the experiment with IGROV1 ovarian, in the experiment on LOX IMVI melanoma, in the experiment on MOLT-4 leukemia and with NCI-H522 lung was more than 100 µM throughout. In addition, the TGI was more than 100 µM in the experiment on OVCAR-5 ovarian, more than 100 µM in the experiment with SF-295 CNS, more than 53.5 µM with SW-620 colon and more than 100 µM in the experiment with UO-31 renal.
Turning to `CN(C)C1CCN(C(=O)c2ccc(NC(=O)Nc3ccc(-c4nc(N5CCOCC5)c5cccn5n4)cc3)cc2)CC1`, the GI50 in the experiment on CCRF-CEM leukemia was 0.0483 µM; in the experiment on HCT-15 colon, 2.77 µM; in the experiment on IGROV1 ovarian, 0.0302 µM; in the experiment on LOX IMVI melanoma, 0.0267 µM; in the experiment with MOLT-4 leukemia, 0.0457 µM; in the experiment with NCI-H522 lung, 0.0377 µM. Moreover, the GI50 in the experiment on OVCAR-5 ovarian was 0.0521 µM; with SF-295 CNS, 0.0719 µM; with SW-620 colon it was 0.128 µM; in the experiment on UO-31 renal, 1.15 µM. The TGI with CCRF-CEM leukemia was 4.69 µM; with HCT-15 colon, more than 50.7 µM; in the experiment on IGROV1 ovarian it was 0.211 µM; in the experiment with LOX IMVI melanoma, 1.19 µM; in the experiment with MOLT-4 leukemia, 2.52 µM; with NCI-H522 lung, 19.1 µM. Besides, the TGI in the experiment with OVCAR-5 ovarian worked out at 16.1 µM; with SF-295 CNS, 0.512 µM; in the experiment with SW-620 colon it was 11.8 µM; in the experiment with UO-31 renal, 10.1 µM.
As to `O=C(Cc1ccc(F)c(Cl)c1)Nc1cc(C2(C(F)(F)F)CC2)nn1CC1CCCCC1`, the GI50 is 4.72 µM in the experiment on CCRF-CEM leukemia; 3.87 µM in the experiment on HCT-15 colon; 4.64 µM in the experiment on IGROV1 ovarian; 4.58 µM with LOX IMVI melanoma; 3.37 µM in the experiment with MOLT-4 leukemia; 2.93 µM with NCI-H522 lung. Further, the GI50 is 4.44 µM with OVCAR-5 ovarian, 3.62 µM with SF-295 CNS, 3.92 µM in the experiment on SW-620 colon and 2.9 µM in the experiment on UO-31 renal. The TGI in the experiment with CCRF-CEM leukemia was more than 15 µM; in the experiment with HCT-15 colon, more than 15 µM; in the experiment with IGROV1 ovarian it was more than 15 µM; with LOX IMVI melanoma, more than 15 µM; in the experiment with MOLT-4 leukemia, 9.57 µM; in the experiment on NCI-H522 lung, 9.67 µM. Besides, the TGI with OVCAR-5 ovarian is more than 15 µM; in the experiment with SF-295 CNS, more than 15 µM; in the experiment with SW-620 colon it was 14.4 µM; with UO-31 renal, 9.65 µM.
For the molecule `NC(N)=NCCCC(=O)O`, the TGI with CCRF-CEM leukemia, in the experiment on HCT-15 colon, with IGROV1 ovarian, in the experiment with LOX IMVI melanoma, in the experiment on MOLT-4 leukemia and in the experiment on NCI-H522 lung was more than 100 µM each time. Also, the TGI in the experiment with OVCAR-5 ovarian, in the experiment with SF-295 CNS, in the experiment with SW-620 colon and in the experiment with UO-31 renal was more than 100 µM each time.
Regarding `CCn1c(O)c(/C=N/NC(=O)C(C)c2ccc(CC(C)C)cc2)sc1=S` (stereo not given), the GI50 in the experiment with CCRF-CEM leukemia is 0.23 µM; with HCT-15 colon it was 0.379 µM; with IGROV1 ovarian, 0.419 µM; with LOX IMVI melanoma, 0.594 µM; with MOLT-4 leukemia it was 0.479 µM; with NCI-H522 lung it was 0.277 µM. The GI50 in the experiment on OVCAR-5 ovarian is 0.619 µM; in the experiment on SF-295 CNS, 0.337 µM; in the experiment on SW-620 colon, 0.394 µM; in the experiment with UO-31 renal it was 0.483 µM. Further, the TGI is more than 100 µM in the experiment on CCRF-CEM leukemia; more than 35.4 µM in the experiment on HCT-15 colon; more than 36.9 µM with IGROV1 ovarian; more than 36.1 µM with LOX IMVI melanoma; more than 48.2 µM in the experiment with MOLT-4 leukemia; 5.58 µM in the experiment with NCI-H522 lung. Further, the TGI in the experiment on OVCAR-5 ovarian was more than 44.7 µM; in the experiment on SF-295 CNS, more than 34.7 µM; in the experiment with SW-620 colon, more than 40.9 µM; in the experiment on UO-31 renal it was 16.8 µM.
As for `Cc1nnc(Nc2ccc(NC(=O)Nc3ccc(Cl)cc3)cc2)c2ccccc12`, the GI50 with CCRF-CEM leukemia is 2.38 µM; with HCT-15 colon, 1.91 µM; in the experiment with IGROV1 ovarian, 3.98 µM; in the experiment with LOX IMVI melanoma it was 1.75 µM; in the experiment on MOLT-4 leukemia, 2.36 µM; with NCI-H522 lung, 1.84 µM. Besides, the GI50 in the experiment on OVCAR-5 ovarian was 2.1 µM; in the experiment on SF-295 CNS, 2.04 µM; in the experiment with SW-620 colon it was 2.15 µM; in the experiment on UO-31 renal, 2.14 µM. Further, the TGI came to 5.99 µM in the experiment on CCRF-CEM leukemia; 4.53 µM in the experiment on HCT-15 colon; 19.5 µM with IGROV1 ovarian; 3.27 µM with LOX IMVI melanoma; 6 µM in the experiment on MOLT-4 leukemia; 3.88 µM with NCI-H522 lung. Also, the TGI with OVCAR-5 ovarian came out at 4.99 µM; in the experiment on SF-295 CNS, 4.21 µM; in the experiment on SW-620 colon it was 4.76 µM; in the experiment with UO-31 renal, 6.01 µM.
Regarding `C=CCC1(c2ccc(OC)cc2)C=CC(=O)CC1` (stereo not given), the TGI with CCRF-CEM leukemia, with HCT-15 colon, in the experiment with IGROV1 ovarian, with LOX IMVI melanoma, in the experiment with MOLT-4 leukemia and in the experiment on NCI-H522 lung was more than 100 µM in each case. The TGI in the experiment with OVCAR-5 ovarian, in the experiment on SF-295 CNS, in the experiment with SW-620 colon and in the experiment on UO-31 renal was more than 100 µM throughout.
Regarding `COc1cc(N(CCC#N)CCC#N)ccc1/C(N=Nc1ccc(Cl)cc1)=N/NC(=O)c1cc(Br)ccc1O`, the GI50 is 74 µg/mL with CCRF-CEM leukemia; 32.7 µg/mL in the experiment on HCT-15 colon; 54.5 µg/mL in the experiment with IGROV1 ovarian; 49.3 µg/mL in the experiment with LOX IMVI melanoma; 32.9 µg/mL in the experiment with MOLT-4 leukemia; 56.4 µg/mL in the experiment on NCI-H522 lung. Further, the GI50 with OVCAR-5 ovarian was more than 150 µg/mL; in the experiment on SF-295 CNS, 79.4 µg/mL; in the experiment with SW-620 colon it was more than 150 µg/mL; in the experiment on UO-31 renal, 86.6 µg/mL. The TGI in the experiment on CCRF-CEM leukemia was more than 150 µg/mL; in the experiment with HCT-15 colon it was 66.4 µg/mL; in the experiment with IGROV1 ovarian, more than 150 µg/mL; in the experiment with LOX IMVI melanoma, more than 150 µg/mL; with MOLT-4 leukemia it was more than 150 µg/mL; with NCI-H522 lung it was more than 150 µg/mL. Besides, the TGI with OVCAR-5 ovarian, in the experiment with SF-295 CNS, with SW-620 colon and with UO-31 renal was more than 150 µg/mL throughout.
Regarding `CC(C)(C)c1cc(C(P(=O)(O)O)P(=O)(O)O)cc(C(C)(C)C)c1O`, the TGI with CCRF-CEM leukemia, in the experiment on HCT-15 colon, with IGROV1 ovarian, with LOX IMVI melanoma, with MOLT-4 leukemia and with NCI-H522 lung was more than 100 µM throughout. In addition, the TGI in the experiment with OVCAR-5 ovarian, in the experiment on SF-295 CNS, in the experiment with SW-620 colon and in the experiment with UO-31 renal was more than 100 µM in each case.
Consider `CC(NCCC(c1ccccc1)c1ccccc1)c1ccccc1` (stereo not given), for which the GI50 with CCRF-CEM leukemia was 2.38 µM; with HCT-15 colon, 2.57 µM; with IGROV1 ovarian, 2.89 µM; in the experiment on LOX IMVI melanoma, 1.59 µM; with MOLT-4 leukemia it was 2.59 µM; in the experiment on NCI-H522 lung, 1.81 µM. The GI50 is 2.88 µM in the experiment on OVCAR-5 ovarian, 1.73 µM in the experiment on SF-295 CNS, 1.71 µM with SW-620 colon and 2.19 µM with UO-31 renal. Moreover, the TGI in the experiment with CCRF-CEM leukemia is 8.73 µM; in the experiment with HCT-15 colon it was 7.83 µM; in the experiment with IGROV1 ovarian it was 13.5 µM; in the experiment on LOX IMVI melanoma it was 2.93 µM; in the experiment with MOLT-4 leukemia, 7.15 µM; in the experiment on NCI-H522 lung, 3.48 µM. The TGI in the experiment with OVCAR-5 ovarian was determined as 11.4 µM; in the experiment with SF-295 CNS it was 3.86 µM; in the experiment on SW-620 colon, 3.42 µM; in the experiment on UO-31 renal it was 12.1 µM.
On to `COc1cc(Cl)cc(-c2nn(-c3cccc(NC(=O)c4ccc(N5CCOCC5)c(C(F)(F)F)c4)c3)cc2-c2ccncc2)c1`, for which the GI50 with CCRF-CEM leukemia was 3.88 µM; in the experiment on HCT-15 colon it was 3.25 µM; with IGROV1 ovarian, more than 100 µM; with LOX IMVI melanoma, 15.8 µM; with MOLT-4 leukemia, 5.49 µM; in the experiment with NCI-H522 lung it was 4.72 µM. Also, the GI50 in the experiment with OVCAR-5 ovarian is 32.5 µM; with SF-295 CNS, 2.21 µM; in the experiment with SW-620 colon it was 29.8 µM; with UO-31 renal it was 4.5 µM. Also, the TGI in the experiment on CCRF-CEM leukemia, in the experiment with HCT-15 colon, with IGROV1 ovarian, in the experiment on LOX IMVI melanoma, in the experiment with MOLT-4 leukemia and with NCI-H522 lung was more than 100 µM throughout. Moreover, the TGI is more than 100 µM in the experiment on OVCAR-5 ovarian, 14.8 µM in the experiment on SF-295 CNS, more than 100 µM with SW-620 colon and more than 100 µM with UO-31 renal.
As to `COc1ccc2nc3ccccc3c(NCc3ccc(F)cc3)c2c1`, the GI50 with CCRF-CEM leukemia was 2.06 µM; with HCT-15 colon, 1.54 µM; in the experiment with IGROV1 ovarian, 1.8 µM; in the experiment with LOX IMVI melanoma it was 0.841 µM; in the experiment on MOLT-4 leukemia, 1.66 µM; in the experiment with NCI-H522 lung it was 2.06 µM. For the same molecule, the GI50 is 2.25 µM in the experiment with OVCAR-5 ovarian, 1.58 µM with SF-295 CNS, 1.63 µM in the experiment on SW-620 colon and 0.962 µM in the experiment on UO-31 renal. The TGI with CCRF-CEM leukemia worked out at 23.4 µM; with HCT-15 colon, 5.23 µM; with IGROV1 ovarian, 6.65 µM; in the experiment on LOX IMVI melanoma, 1.71 µM; in the experiment on MOLT-4 leukemia, 10.4 µM; with NCI-H522 lung, 9.38 µM. Besides, the TGI was 8.21 µM in the experiment on OVCAR-5 ovarian, 6.48 µM in the experiment with SF-295 CNS, 7.03 µM in the experiment with SW-620 colon and 3.96 µM in the experiment with UO-31 renal.
With `Cc1ccc(C)c(NC(=O)c2cccc([N+](=O)[O-])c2O)c1`, the TGI in the experiment with CCRF-CEM leukemia was more than 100 µM; in the experiment with HCT-15 colon it was more than 100 µM; in the experiment on IGROV1 ovarian, more than 100 µM; in the experiment with LOX IMVI melanoma, 53.5 µM; in the experiment with MOLT-4 leukemia it was more than 100 µM; in the experiment on NCI-H522 lung, 67.2 µM. Also, the TGI with OVCAR-5 ovarian was more than 100 µM; with SF-295 CNS, 41.5 µM; in the experiment with SW-620 colon, more than 100 µM; in the experiment on UO-31 renal, 51.9 µM.

The values are drawn from PubChem BioAssay (NCI).
